Experiment [1] deals with diet-induced obese mouse model of fatty liver disease and NASH (DIO-NASH). The experiment in a line: Mouse DIO-NASH model, 6 weeks treatment, hepatic pathology score (Example 3). The format is in vivo, C57Bl/6J male mice. The settings on record: DIO-NASH mice; for NAFLD activity score, post-hoc test comparing the control group with the other groups (FIG. 1): Kruskal-Wallis p <0.01; for NAFLD activity score, post-hoc test comparing the control group with the other groups (FIG. 1) / fibrosis stage, Kruskal-Wallis test vs vehicle control (FIG. 2): p<0.05 regarded as significant; for fibrosis stage, Kruskal-Wallis test vs vehicle control (FIG. 2): p=0.4. The text has this: Effect of SGLT-2 Inhibitors and Epanova Alone or in Combination on Metabolic Parameters and Hepatic Pathology Score in a Mouse DIO-NASH Model
Determine the effect of 6 weeks treatment with the SGLT2 inhibitors dapagliflozin, ipragliflozin and canagliflozin and the Omega-3 compound Epanova alone or in combination on NAFLD Activity Score (NAS) including fibrosis stage (post versus pre-treatment) in a diet-induced obese mouse model of fatty liver disease and NASH (DIO-NASH).
At 5 weeks of age, C57Bl/6J male mice are purchased from JanVier, France. During the acclimatization and diet-induction period, the mice are group housed five per cage under a 12:12 light dark cycle (lights on from 0400-1600 h) at controlled temperature conditions (22±1° C.; 50±10% relative humidity). Throughout the study period, the mice have ad libitum access to NASH diet (DIO-NASH) (D09100301, Research Diet) (40% fat (18% trans-fat)), 40% carbohydrates (20% fructose) and 2% cholesterol). The animals are kept on the diet for 28 weeks before experimentation. In addition, a sub-set of animals are given normal chow (Altromin 1324, Brogaarden) to be included as a lean control group (LEAN-CHOW). During post-OP recovery and study period, animals will be single-housed. BW will be recorded once daily during the study period. 24 h food and water intake will be recorded once weekly during the study period.
During the DIO-NASH diet-induction period, BW will be monitored once monthly. After 25 weeks of diet-induction, a liver biopsy will be obtained for hepatic progression of fibrosis and steatosis evaluated by histochemical analysis, and subsequently NAFLD Activity Score including fibrosis stage and optional gene expression analysis (see below). At day −6, animals are stratified into treatment groups according to levels of fibrosis (% collagen) followed by randomization based on 1) liver fibrosis and 2) BW. In addition, liver steatosis (% lipid) will be analyzed. At day −5, animals are EchoMRI scanned for body composition analysis.
Dosing volume is 5-20 ml/kg (TBD). Route of administration is per oral (PO) dosing by gavage. Dosing frequency will be once daily (QD). Day 0 is the first day of dosing. Animals are dosed with compound(s) and vehicle between 2-4 PM. Animals are dosed for 42 days. Last dose will be administered the day before termination (study day 41).
A liver pre-biopsy and terminal liver tissue from the left lateral lobe will be collected for NAS and assessment of fibrosis stage by use of clinical criteria outlined by Kleiner and colleagues (Design and validation of a histological scoring system for nonalcoholic fatty liver disease, Kleiner et al, Hepatology 41; 2005). The NAS is the sum of steatosis, lobular inflammation and hepatocellular ballooning scores:
To assess hepatic steatosis, ballooning degeneration, fibrosis and inflammation sections are stained with H&E, Sirius Red, CK18 (ballooning) and Galectin-3 (macrophages), respectively) followed by analysis with Visiomorph software (Visiopharm, Copenhagen, Denmark). Biopsy assessment of hepatic steatosis, fibrosis or inflammation will be described as percentage of total area using a protocol designed for the specific purpose.
Results are presented as mean±SEM (standard error of the mean) unless otherwise stated. Statistical evaluation of the data is carried out using Student's unpaired t-test or two-way ANOVA for comparison of LEAN-CHOW control versus DIO-NASH Vehicle. For comparison of DIO-NASH groups, one-way and two-way ANOVA are being applied where appropriate. Post-hoc analysis (Dunnett/Bonferroni) in cases with statistical significance is performed (p<0.05 considered significant).

For the next experiment, the system named is diabetic population. The settings on record: cited from earlier work.
The test system of experiment [2] is VCU (Virginia Commonwealth University) NASH mouse model. Nature of the experiment: VCU NASH mouse model, 4 weeks treatment, liver histology (Example 4). The settings on record: VCU NASH mice, 4 weeks daily gavage; dapagliflozin 1 mg/kg/d, Epanova 600 mg/kg/d. Format: in vivo. How it is done:
A further pre-clinical mouse study was carried out according to the Experimental plan described below:
Model: VCU (Virginia Commonwealth University) NASH mouse model; inbred C57bI6J/×129SI/SvlmJ given high fat, cholesterol, fructose and glucose diet for 16 weeks before starting pharmacological treatment.
Treatment: drugs will be administered by daily gavage. Gavage volume will not exceed 3 mL/Kg. vehicles will be olive oil and water. Epanova and dapagliflozin will be administered by daily gavage in one syringe.
Run-in: 16 weeks in high fat, cholesterol, fructose and glucose diet one week with vehicle gavage.
T=0 weeks: the mice will be matched based on body weight. The mice will be divided into 4 groups of 12 animals. Vehicle gavage for one week before commencing active treatment for 4 weeks.

Another experiment deals with human SGLT2 (hSGLT2) (Homo sapiens, UniProt P31639). The settings on record: stated property, no value given; cited from earlier work.
In the next experiment the test system is two mouse models of NASH. Nature of the experiment: Overall summary of the two pre-clinical NASH mouse studies. Format: in vivo. From the text:
We have investigated the effect of Epanova, dapagliflozin and the combination of the two components in two pre-clinical studies and a human clinical study, described in the Examples herein.
In the NASH mouse studies included in the present application, no changes in body weight, glucose or insulin levels or liver fat were observed, however the NASH mouse models used were not diabetic, but were obese and insulin resistant.

[3] abbreviates: 6 weeks QD PO, dapagliflozin 1 mg/kg, Epanova 600 mg/kg, vs vehicle.

Chain of human SGLT2 (hSGLT2) (P31639 whole entry): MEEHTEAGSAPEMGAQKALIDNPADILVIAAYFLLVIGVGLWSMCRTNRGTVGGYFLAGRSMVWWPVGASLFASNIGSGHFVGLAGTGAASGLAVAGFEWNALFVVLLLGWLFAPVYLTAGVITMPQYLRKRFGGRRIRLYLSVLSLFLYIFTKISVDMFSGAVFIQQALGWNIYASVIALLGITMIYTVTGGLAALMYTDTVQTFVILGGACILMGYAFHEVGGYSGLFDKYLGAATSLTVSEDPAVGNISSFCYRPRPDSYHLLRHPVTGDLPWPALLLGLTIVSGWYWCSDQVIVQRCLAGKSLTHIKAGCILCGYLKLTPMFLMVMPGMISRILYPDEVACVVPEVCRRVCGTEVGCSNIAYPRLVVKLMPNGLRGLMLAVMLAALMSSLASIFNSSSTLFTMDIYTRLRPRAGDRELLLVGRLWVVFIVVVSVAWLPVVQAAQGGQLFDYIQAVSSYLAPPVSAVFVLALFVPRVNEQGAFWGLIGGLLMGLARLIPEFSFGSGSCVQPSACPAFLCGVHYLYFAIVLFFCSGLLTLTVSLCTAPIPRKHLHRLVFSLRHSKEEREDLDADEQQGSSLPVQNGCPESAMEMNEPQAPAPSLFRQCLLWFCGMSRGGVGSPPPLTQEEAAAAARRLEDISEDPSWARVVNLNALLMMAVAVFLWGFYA

In the case of `Cc1ccc([C@@H]2O[C@H](CO)[C@@H](O)[C@H](O)[C@H]2O)cc1Cc1ccc(-c2ccc(F)cc2)s1` [Canagliflozin, canagliflozin], in experiment [1], the “NAFLD activity score, post-hoc test comparing the control group with the other groups (FIG. 1)” value (shortened to “NAFLD activity score … (FIG. 1)”) is given as “not significant” and the “fibrosis stage, Kruskal-Wallis test vs vehicle control (FIG. 2)” value (shortened to “fibrosis stage … vs vehicle control (FIG. 2)”) is “non-significant”.
For the compound `CCOc1ccc(Cc2cc([C@@H]3O[C@H](CO)[C@@H](O)[C@H](O)[C@H]3O)ccc2Cl)cc1` [Dapagliflozin, dapagliflozin], in the experiment with diabetic population (diabetic population / diabetic patients), the liver fat content result is “tend to reduce liver fat content”. The body fat content entry in the experiment on diabetic population (published studies (Kabir et al; Bolinder et al)) is given as “reduce body fat content”. Further, the “overall effect on histology (NAFLD Activity Score, fibrosis stage)” value in experiment [2] is “no effect”. Besides, on human SGLT2 (hSGLT2), the “selectivity for SGLT2 relative to SGLT1” value is listed as “High selectivity for SGLT2”. Further, in experiment [1] (setting [3]), the “NAFLD activity scores at the end of the study (primary effect variable)” value was “No effects” and the “fibrosis stage at the end of the study (primary effect variable)” value is recorded as “No effects”. For the same compound, in experiment [1] (6 weeks QD PO, post versus pre-treatment), the “fibrosis, comparing baseline and end-of study biopsies” value is on record as “reduced fibrosis”. In experiment [1], the “NAFLD activity score … (FIG. 1)” value is listed as “not significant” and the “fibrosis stage … vs vehicle control (FIG. 2)” value is “non-significant”. Further, the “effect of treatment on NASH” value in the experiment on two mouse models of NASH is recorded as “did not show any effect”.
For the compound `OC[C@H]1O[C@@H](c2ccc(F)c(Cc3cc4ccccc4s3)c2)[C@H](O)[C@@H](O)[C@@H]1O` [Ipragliflozin, ipragliflozin], in experiment [1], the “NAFLD activity score … (FIG. 1)” value is “not significant” and the “fibrosis stage … vs vehicle control (FIG. 2)” value was “non-significant”.

Values taken from patent US9757404B2, “Combination comprising an omega-3 fatty acid composition and an SGLT2 inhibitor” (AstraZeneca AB, priority 2014, dated 2017).
